Consider two molecules from publication PMC2099433, “The binding site for neohesperidin dihydrochalcone at the human sweet taste receptor” (BMC Structural Biology, 2007).

The target of experiment [1] is T1, hTAS1R2 + hTAS1R3 V621I^2.58 (Homo sapiens, UniProt Q7RTX0+Q8TE23, V621I).
T1 construct: expressed in transfected cells; host or cells: HEK293T cells stably expressing G16Gust44
T1 sequence (Q8TE23 20-839): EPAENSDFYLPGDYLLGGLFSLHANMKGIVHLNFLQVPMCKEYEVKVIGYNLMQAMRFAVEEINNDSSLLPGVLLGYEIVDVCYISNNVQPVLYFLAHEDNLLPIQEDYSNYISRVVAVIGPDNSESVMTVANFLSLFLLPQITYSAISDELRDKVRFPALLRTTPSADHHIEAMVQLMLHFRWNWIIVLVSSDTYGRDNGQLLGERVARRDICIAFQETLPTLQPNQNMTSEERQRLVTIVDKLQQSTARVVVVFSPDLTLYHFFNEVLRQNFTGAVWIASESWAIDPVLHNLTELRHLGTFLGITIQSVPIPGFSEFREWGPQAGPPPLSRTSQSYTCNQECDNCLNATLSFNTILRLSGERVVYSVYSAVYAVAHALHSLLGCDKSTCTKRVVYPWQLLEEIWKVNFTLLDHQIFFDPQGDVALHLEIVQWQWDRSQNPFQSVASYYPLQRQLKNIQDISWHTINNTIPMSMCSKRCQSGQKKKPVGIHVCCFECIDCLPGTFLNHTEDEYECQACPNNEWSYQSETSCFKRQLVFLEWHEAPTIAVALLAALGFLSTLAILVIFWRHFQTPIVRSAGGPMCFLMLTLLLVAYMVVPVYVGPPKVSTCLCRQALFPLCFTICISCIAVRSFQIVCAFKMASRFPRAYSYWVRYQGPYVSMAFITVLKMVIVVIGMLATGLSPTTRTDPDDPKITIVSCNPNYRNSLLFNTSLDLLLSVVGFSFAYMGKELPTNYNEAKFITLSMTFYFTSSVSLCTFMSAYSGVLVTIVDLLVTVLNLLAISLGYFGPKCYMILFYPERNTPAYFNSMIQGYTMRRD
T1 sequence (Q7RTX0 21-852 V621I): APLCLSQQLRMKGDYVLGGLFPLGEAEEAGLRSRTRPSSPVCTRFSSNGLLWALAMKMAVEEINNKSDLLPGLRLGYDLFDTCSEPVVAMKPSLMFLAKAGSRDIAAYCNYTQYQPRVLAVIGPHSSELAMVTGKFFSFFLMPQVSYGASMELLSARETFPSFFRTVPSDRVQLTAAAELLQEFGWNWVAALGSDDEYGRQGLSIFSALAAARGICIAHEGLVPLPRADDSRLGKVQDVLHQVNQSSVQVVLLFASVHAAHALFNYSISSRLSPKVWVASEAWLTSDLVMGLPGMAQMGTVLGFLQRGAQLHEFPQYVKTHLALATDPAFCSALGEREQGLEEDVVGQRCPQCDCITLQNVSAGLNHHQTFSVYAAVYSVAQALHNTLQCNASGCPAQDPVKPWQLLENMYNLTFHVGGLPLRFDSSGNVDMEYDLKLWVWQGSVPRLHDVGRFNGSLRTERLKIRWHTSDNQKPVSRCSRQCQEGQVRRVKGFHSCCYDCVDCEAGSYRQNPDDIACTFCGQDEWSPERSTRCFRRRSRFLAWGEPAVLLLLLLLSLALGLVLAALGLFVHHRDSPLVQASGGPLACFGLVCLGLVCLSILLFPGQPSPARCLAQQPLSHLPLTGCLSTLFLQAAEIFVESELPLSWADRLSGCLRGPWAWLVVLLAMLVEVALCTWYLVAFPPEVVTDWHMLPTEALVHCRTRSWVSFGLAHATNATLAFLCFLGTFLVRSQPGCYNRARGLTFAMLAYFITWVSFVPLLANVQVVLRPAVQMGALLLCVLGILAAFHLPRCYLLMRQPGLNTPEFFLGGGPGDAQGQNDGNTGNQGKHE
In words: Calcium response (FLIPR), hTAS1R3 mutant coexpressed with hTAS1R2. The format is cell-based. The following applies: variant V621I^2.58; for EC50: (>) EC50 not calculable because saturation is not reached; for Emax: read-out: maximal signal (% of wt). Put shortly: (§1)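 HEK293T/G16Gust44, transient transfection of HSV-tagged TAS1R2 + TAS1R3 mutants; Fluo4-AM loading 1 h at 24 h; sweet tastants in C1 solution; FLIPR Ca2+ read; ΔF/F, mock-subtracted; ≥3 independent expts in duplicate.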

Experiment [2] has as its target T2, hTAS1R2 + hTAS1R3 Q637E^3.29 (Homo sapiens, UniProt Q7RTX0+Q8TE23, Q637E).
T2 construct: expressed in transfected cells; host or cells: HEK293T cells stably expressing G16Gust44
T2 sequence (Q8TE23 20-839): T1 sequence (Q8TE23 20-839)
T2 sequence (Q7RTX0 21-852 Q637E): T1 sequence (Q7RTX0 21-852 V621I) with I601V, Q617E
Described as above. The format is cell-based. Particulars: variant Q637E^3.29; for Emax: read-out: maximal signal (% of wt). The gist of the method: as §1

Changes are numbered by the printed parent chain. Where a SMILES comes first, the peptide text is derived from it.

For the molecule `COc1ccc(CCC(=O)c2c(O)cc(O[C@@H]3O[C@H](CO)[C@@H](O)[C@H](O)[C@H]3O[C@@H]3O[C@@H](C)[C@H](O)[C@@H](O)[C@H]3O)cc2O)cc1O` [NHDC, neohesperidin dihydrochalcone], in experiment [1], the EC50 is over 1 mM and the Emax was determined as 60 ± 14%. Besides, in experiment [2], the EC50 came out at 1.5 ± 0.4 mM and the Emax is 51 ± 13%.

As to `COC(=O)[C@H](Cc1ccccc1)NC(=O)[C@@H](N)CC(=O)O` [aspartame] (HELM PEPTIDE1{D.F.[CO[*:1]]}$$$$V2.0), in experiment [1], the EC50 is 1.9 ± 0.4 mM and the Emax amounted to 61 ± 1%. In experiment [2], the concentration for a half-maximal effect (EC50) came out at 1.7 ± 0.2 mM and the Emax was 51 ± 10%.
